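A five-concentration, 48-hour dose response in 96-well plates underlies each endpoint, interpolated linearly between surrounding concentrations. The concentration for 50% growth inhibition is given as GI50. TGI is the concentration that stops growth completely.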
Assays:
Test in all cases: inhibition of tumour cell growth, NCI panel, 48 h
[1] = system: SF-539 CNS
[2] = system: OVCAR-4 ovarian
[3] = system: SK-OV-3 ovarian
[4] = system: MOLT-4 leukemia
[5] = system: DU-145 prostate
[6] = system: SF-268 CNS
[7] = system: EKVX NSCLC
[8] = system: KM12 colon
[9] = system: SW-620 colon
[10] = system: MCF7 breast
[11] = system: MALME-3M melanoma
[12] = system: 786-0 renal
[13] = system: A498 renal
[14] = system: RPMI-8226 leukemia
[15] = system: SF-295 CNS
[16] = system: BT-549 breast
[17] = system: CAKI-1 renal
[18] = system: HCT-116 colon
[19] = system: TK-10 renal
[20] = system: LOX IMVI melanoma
[21] = system: UACC-257 melanoma
[22] = system: MDA-MB-435
[23] = system: OVCAR-8 ovarian
[24] = system: NCI-H522 lung
[25] = system: OVCAR-3 ovarian
[26] = system: NCI-H23 lung
[27] = system: A549 NSCLC
[28] = system: K-562 leukemia
[29] = system: UACC-62 melanoma

Cc1cc([C@@H](C)Nc2ccccc2C(=O)O)c2nc(N3CCOCC3)cc(=O)n2c1
TGI [1]: > 10 µM
GI50 [2]: > 10 µM
TGI [2]: > 10 µM
GI50 [3]: 1.08 µM
TGI [3]: > 10 µM
GI50 [4]: 5.42 µM
TGI [4]: > 10 µM
GI50 [5]: > 10 µM
TGI [5]: > 10 µM
GI50 [6]: > 10 µM
TGI [6]: > 10 µM
GI50 [7]: > 10 µM
TGI [7]: > 10 µM
GI50 [8]: > 10 µM
TGI [8]: > 10 µM
GI50 [9]: > 10 µM
TGI [9]: > 10 µM
GI50 [10]: 3.36 µM
TGI [10]: > 10 µM
GI50 [11]: > 10 µM
TGI [11]: > 10 µM
GI50 [12]: 1.23 µM
TGI [12]: > 10 µM
GI50 [13]: 0.0166 µM
TGI [13]: 0.0945 µM
GI50 [14]: > 10 µM
TGI [14]: > 10 µM
GI50 [15]: 1.85 µM
TGI [15]: > 10 µM
GI50 [16]: 1.17 µM
TGI [16]: > 10 µM
GI50 [17]: 6.28 µM
TGI [17]: > 10 µM
GI50 [18]: 2.76 µM
TGI [18]: > 10 µM
GI50 [19]: > 10 µM
TGI [19]: > 10 µM
GI50 [20]: 6.73 µM
TGI [20]: > 10 µM
GI50 [21]: > 10 µM
TGI [21]: > 10 µM
GI50 [22]: > 10 µM
TGI [22]: > 10 µM
GI50 [23]: > 10 µM
TGI [23]: > 10 µM
GI50 [24]: > 10 µM
TGI [24]: > 10 µM
GI50 [25]: 6.02 µM
TGI [25]: > 10 µM
GI50 [26]: > 10 µM
TGI [26]: > 10 µM
GI50 [27]: > 10 µM
TGI [27]: > 10 µM
GI50 [28]: > 10 µM
TGI [28]: > 10 µM
GI50 [29]: 0.627 µM
TGI [29]: > 10 µM

— PubChem BioAssay (NCI)
